Measured values: the supplement of paper PMC4862054
“And” between values parts separate entries of the source, which are not always exact repeats. Identical values can stand only once.

Columns and labels:
Conditions in all cases: incubation time: 72 h
BT-474 [1] = assay: drug sensitivity score (DSS), CellTiter-Glo (DSS (AUC-based score)); higher = stronger drug effect (viability inhibition or cytotoxicity); extreme values may be limits of the assay
Method in brief: (§1)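 The area under the fitted dose-response curve was used to calculate the drug sensitivity score. Cells from breast cancer lines were incubated for 72 h in 384-well plates with compound at 5 concentrations spaced 10-fold over a 10,000-fold range specific to each compound. Plates were read for CellTox Green and then CellTiter-Glo, and normalised to 0.1 % DMSO and a positive kill control.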

CAL-51 [2] = assay: as above
Method in brief: as §1

CAL-85-1 [3] = assay: as above
Method in brief: as §1

HCC1599 [4] = assay: as above
Method in brief: as §1

HCC1937 [5] = assay: as above
Method in brief: as §1

HDQ-P1 [6] = assay: as above
Method in brief: as §1

MDA-MB-453 [7] = assay: as above
Method in brief: as §1

MDA-MB-468 [8] = assay: as above
Method in brief: as §1

BT-474 [9] = assay: drug sensitivity score (DSS), CellTiter-Blue viability (DSS (AUC-based score)); higher = stronger viability inhibition; extreme values may be limits of the assay
Description: (§2)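 DSRT with the CellTiter-Blue (resazurin reduction) viability readout, fluorescence 560/590 nm, 72 h incubation. Plates were normalised to DMSO and benzethonium chloride controls. DSS is computed from the area under the fitted dose-response curve (5 or 9 concentrations).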

BT-549 = assay: as above
Description: as §2

CAL-120 = assay: as above
Description: as §2

CAL-148 = assay: as above
Description: as §2

CAL-51 [10] = assay: as above
Description: as §2

CAL-85-1 [11] = assay: as above
Description: as §2

DU-4475 = assay: as above
Description: as §2

HCC1143 = assay: as above
Description: as §2

HCC1599 [12] = assay: as above
Description: as §2

HCC1937 [13] = assay: as above
Description: as §2

HDQ-P1 [14] = assay: as above
Description: as §2

Hs578T = assay: as above
Description: as §2

MDA-MB-231 = assay: as above
Description: as §2

MDA-MB-436 = assay: as above
Description: as §2

MDA-MB-453 [15] = assay: as above
Description: as §2

MDA-MB-468 [16] = assay: as above
Description: as §2

MFM-223 = assay: as above
Description: as §2

SK-BR-3 = assay: as above
Description: as §2

SMILES | drug sensitivity score (BT-474 [1]) | drug sensitivity score (CAL-51 [2]) | drug sensitivity score (CAL-85-1 [3]) | drug sensitivity score (HCC1599 [4]) | drug sensitivity score (HCC1937 [5]) | drug sensitivity score (HDQ-P1 [6]) | drug sensitivity score (MDA-MB-453 [7]) | drug sensitivity score (MDA-MB-468 [8]) | drug sensitivity score (BT-474 [9]) | drug sensitivity score (BT-549) | drug sensitivity score (CAL-120) | drug sensitivity score (CAL-148) | drug sensitivity score (CAL-51 [10]) | drug sensitivity score (CAL-85-1 [11]) | drug sensitivity score (DU-4475) | drug sensitivity score (HCC1143) | drug sensitivity score (HCC1599 [12]) | drug sensitivity score (HCC1937 [13]) | drug sensitivity score (HDQ-P1 [14]) | drug sensitivity score (Hs578T) | drug sensitivity score (MDA-MB-231) | drug sensitivity score (MDA-MB-436) | drug sensitivity score (MDA-MB-453 [15]) | drug sensitivity score (MDA-MB-468 [16]) | drug sensitivity score (MFM-223) | drug sensitivity score (SK-BR-3)
CN(c1ccccc1CNc1nc(Nc2ccc3c(c2)CC(=O)N3)ncc1C(F)(F)F)S(C)(=O)=O | 7.07 | 10.6 | 6.85 | 3.99 | 2.73 | 7.23 | 0 | 8.4 | – | – | – | – | – | – | – | – | – | – | – | – | – | – | – | – | – | –
COc1ncc(-c2ccc3nccc(-c4ccnnc4)c3c2)cc1NS(=O)(=O)c1ccc(F)cc1F | 11.2 | 15.8 | 16.4 | 9.77 | 10.6 | 19.4 | 19.4 | 13.9 | 19.9 | 13.6 | 16.3 | 17.3 | 21.4 | 16.8 | 10.8 | 14.6 | 17 | 12.3 | 21.1 | 15.1 | 13.3 | 14.2 | 25.7 | 14.2 | 20.6 | 25
C[C@@]1(C(=O)Nc2ccc(F)nc2)CCCN1c1nc(Nc2cc(C3CC3)n[nH]2)c2cccn2n1 | 9.15 | 9.26 | 10.7 | 5.62 | 0 | 15.8 | 0 | 16.4 | 0 | 6.82 | 8.33 | 6.09 | 9.17 | 10.6 | 9.27 | 9.58 | 11.5 | 6.32 | 16 | 5.68 | 11 | 2.82 | 5.98 | 7.88 | 10.1 | 5.88
Nc1nccc(-c2c(-c3ccc(F)cc3)ncn2C2CCCCC2)n1 | 0.373 | 0.055 | 0.583 | 0 | 0 | 0 | 0.568 | 5.85 | – | – | – | – | – | – | – | – | – | – | – | – | – | – | – | – | – | –
COc1c(C)cnc(Cn2cnc3c(Cl)nc(N)nc32)c1C [BIIB021] | 12.4 | 17.2 | 14.7 | 10.4 | 16.3 | 15.2 | 16.2 | 12.7 | 18.8 | 18.8 | 23.5 | 19.3 | 15.5 | 13.6 | 22 | 17 | 8.11 | 19.4 | 12.8 | 12.9 | 15.8 | 11.9 | 24.8 | 14.4 | 18.6 | 26.8
CC(C)C[C@H](NC(=O)[C@H](Cc1ccccc1)NC(=O)c1cnccn1)B(O)O [Bortezomib] | 24.4 | 18.3 | 28.4 | 9.67 | 12.9 | 22.6 | 16.8 | 30.9 | 18.8 | 24.3 | 26.4 | 17.9 | 16.8 | 24.8 | 20.9 | 21.6 | 7.18 | 27.3 | 27.7 | 19.7 | 28.8 | 16.2 | 22.7 | 29.8 | 22.5 | 25.5
CS(=O)(=O)OCCCCOS(C)(=O)=O [Busulfan] | 0.000307 | 0 | 0 | 0 | 0 | 0 | 0 | 0 | 0 | 0 | 0 | 0 | 0 | 0 | 0 | 0 | 0 | 2.62 | 0 | 0 | 0 | 0 | 0 | 0 | 0 | 0
C#Cc1cccc(Nc2ncnc3cc(OC)c(OCCCCCCC(=O)NO)cc23)c1 [CUDC-101] | 7.85 | 12.7 | 19.7 | 11.4 | 8.33 | 7.15 | 21.1 | 18.1 | 14.8 | 8.79 | 11.8 | 12.2 | 4.16 | 15 | 10.6 | 12.4 | 15.3 | 11.3 | 14.7 | 15.6 | 12 | 10.6 | 19.9 | 18 | 15.6 | 18.6
COc1cccc2c1C(=O)c1c(O)c3c(c(O)c1C2=O)C[C@@](O)(C(C)=O)C[C@@H]3O[C@H]1C[C@H](N)[C@H](O)[C@H](C)O1 [Daunorubicin] | 7.33 | 12 | 4.68 | 2.8 | 2.19 | 3.57 | 3.7 | 10.7 | 7.7 | 9.47 | 13.1 | 13 | 13.7 | 5.47 | 14 | 10.9 | 1.88 | 14.9 | 5.31 | 9.16 | 13.5 | 10.8 | 3.7 | 11.1 | 2.14 | 13.1
CN1CCN(c2ccc3nc(-c4c(N)c5c(F)cccc5[nH]c4=O)[nH]c3c2)CC1 [Dovitinib] | 0 | 0 | 0 | 0 | 0 | 0 | 0 | 0 | 0 | 0 | 0 | 0 | 0 | 0 | 0 | 0 | 0 | 3.16 | 0 | 0 | 0 | 0 | 0 | 0 | 0 | 0
O=P(O)(NCCCl)NCCCl [Ifosfamide mustard] | – | – | – | – | – | – | – | – | 0 | 0 | 0 | 0 | 0 | 0 | 0 | 0 | 0 | 0 | 0 | 0 | 0 | 0 | 0 | 0 | 0 | 0
CS(=O)(=O)CCNCc1ccc(-c2ccc3ncnc(Nc4ccc(OCc5cccc(F)c5)c(Cl)c4)c3c2)o1 [Lapatinib] | 0 | 0 | 1.7 | 0 | 0 | 2.38 | 1.41 | 0 | 17.2 and 17.8 | 3.9 and 2.66 | – | 3.64 and 1.81 | 0 | 6.56 and 6.25 | 0 | 0 | – | – | 0 | 3.66 and 4.18 | – | 4.07 and 1.46 | 17.8 and 17 | 8.9 and 8.18 | – | 25.7 and 24.2
COc1cc(Nc2ncc(F)c(Nc3ccc4c(n3)NC(=O)C(C)(C)O4)n2)cc(OC)c1OC [R406] | – | – | – | – | – | – | – | – | 0 | 5.38 | 0 | 0 | 0 | 0 | 0 | 0 | 0 | 0 | 0 | 0 | 5.44 | 0 | 0 | 0 | 0 | 0
Cc1cc(C(C)Nc2ccccc2)c2nc(N3CCOCC3)cc(=O)n2c1 (stereo unspecified) [TGX-221] | 3.45 | 10.7 | 0 | 0 | 0 | 0.256 | 0 | 4.69 | – | – | – | – | – | – | – | – | – | – | – | – | – | – | – | – | – | –
COc1cc(Nc2ncc(F)c(Nc3ccc4c(n3)NC(=O)C(C)(C)O4)n2)cc(OC)c1OC [Tamatinib] | 0 | 2.11 | 0 | 0 | 0 | 0 | 0 | 0 | – | – | – | – | – | – | – | – | – | – | – | – | – | – | – | – | – | –
c1ccc(C2CN3CCSC3=N2)cc1 (stereo unspecified) [Tetramisole] | – | – | – | – | – | – | – | – | 0 | 0 | 0 | 0 | 0 | 0 | 0 | 0 | 0 | 0 | 0 | 0 | 0 | 0 | 0 | 0 | 0 | 0
C[C@@H]1CCN(C(=O)CC#N)C[C@@H]1N(C)c1ncnc2[nH]ccc12 [Tofacitinib] | 0 | 5 | 0 | 0 | 0 | 0 | 0 | 0 | – | – | – | – | – | – | – | – | – | – | – | – | – | – | – | – | – | –
FC(F)c1nc2ccccc2n1-c1nc(N2CCOCC2)nc(N2CCOCC2)n1 [ZSTK474] | 6.3 | 11.6 | 10.4 | 2.33 | 6.46 | 10.8 | 12.9 | 8.61 | – | – | – | – | – | – | – | – | – | – | – | – | – | – | – | – | – | –
